In patent US20060241026A1, “Novel cyclic peptides and use thereof as anti-microbial agents” (priority 2002, published 2006):
≈ marks a conversion by molar mass, not a printed value. Entries after “also recorded” stand apart in the source; their conditions may differ. Like-named read-outs stand apart in the source and are kept apart here. Positions of bridges follow the written chain, without caps; N, C: chain ends. Residues, ends and D or L forms follow the SMILES beside them.

Key:
[1] = test system: Staphylococcus aureus; assay type: cell-based
Experimental: (§1) The activity of the synthetic peptides was tested with respect to the Gram+ bacteria Mycrocossus luteus, Staphylococcus aureus, Staphylococcus epidermidis and Bacillus megaterium. The activities were determined according to the protocol described by HANCOCK et al. (http://www.interchg.ubc.ca/bobh/methods.htm)
(§2) The MIC was determined for each peptide by inhibition of growth in liquid medium. Doubling dilution of peptide was realized in the wells of a Microtest plate in a volume of 10 μl. The bacteria were grown in MUELLER HINTON BROTH (MHB, Difco) liquid medium. During the exponential growth phase, a solution with an optical density of 0.001 at 600 nm was produced, and 100 μl of this suspension were added to each well. The incubation lasted 24 h at 30° C., and the optical densities of each well were then measured at 600 nm. The value of the MIC corresponds to the first well for which the optical density had not changed.
(§3) The dishes were incubated for 24 h at 30° C. The value of the MBC corresponds to the lowest concentration of the peptide for which no colony developed.

[2] = test system: Bacillus megaterium; assay type: cell-based
Experimental: as §1, §2, §3

[3] = test system: Staphylococcus epidermidis; assay type: cell-based
Experimental: as §1, §2, §3

[4] = test system: Micrococcus luteus; assay type: cell-based
Experimental: as §1, §2, §3

[5] = test system: Fusarium oxysporum; assay type: cell-based
Experimental: (§4) The anti-fungal activity was determined by calculating the MIC in a growth inhibition assay for the shrimp parasite fungus Fusarium oxysporum, in liquid phase, according to the protocol described by FELHBAM et al. (J. Biol. Chem., 1994, 269:33159-63). Doubling dilutions of each peptide were realized in the wells of a Microtest plate in a volume of 10 μl. 90 μl of spores resuspended in potato dextrose broth medium (DIFCO) at a final concentration of 10^4 spores/ml were added to each well. The growth inhibition was measured after incubation for 24 h at 25° C. in the dark, by observation under an optical microscope and measurement of the increase in OD at 600 nm. The value of the MIC corresponds to the first well for which the optical density had not increased.

[6] = test system: Gram+ and Gram− bacteria and a filamentous fungus; test: Antibiotic tests on Gram+ and Gram- bacteria and on a filamentous fungus, summary in words; assay type: cell-based; details: compared with the native molecule or the minimal loop
Experimental: as §1, §2, §3, §4
Using the 3-D structure of the native molecule as a basis, said molecule was fractionated into 17 elements (table I). All these fragments were synthesized and their activities were assayed using antibiotic tests on Gram+ and Gram− bacteria and on a filamentous fungus. The minimum inhibitory concentration (MIC) and minimum […] concentration (MBC) of each peptide were thus determined and were compared with those of the native molecule.

[7] = test system: Gram+ and Gram− bacteria and a filamentous fungus; test: as above; assay type: cell-based
[8] = test system: Gram+ bacteria; details: cited from earlier work

| Molecule | Staphylococcus aureus MBC ([1]; Table II) [µM] | Staphylococcus aureus MIC ([1]; Table II) [µM] | Bacillus megaterium MBC ([2]; Table II) [µM] | Bacillus megaterium MIC ([2]; Table II) [µM] | Staphylococcus epidermidis MBC ([3]; Table II) [µM] | Staphylococcus epidermidis MIC ([3]; Table II) [µM] | Micrococcus luteus MBC ([4]; Table II) [µM] | Micrococcus luteus MIC ([4]; Table II) [µM] | Fusarium oxysporum MIC ([5]; Table II, 24 h at 25° C.) [µM] | anti-microbial activity (in words) [6] | Staphylococcus aureus MBC [1] [µM] | Staphylococcus aureus MIC [1] [µM] | Bacillus megaterium MBC ([2]; Bacillus) [µM] | Bacillus megaterium MIC ([2]; Bacillus) [µM] | Staphylococcus epidermidis MBC [3] [µM] | Staphylococcus epidermidis MIC [3] [µM] | Micrococcus luteus MBC [4] [µM] | Micrococcus luteus MIC [4] [µM] | MIC on M leuteus ([4]; 24 h) [µM] | Fusarium oxysporum MIC ([5]; 24 h) [µM] | further results |
| --- | --- | --- | --- | --- | --- | --- | --- | --- | --- | --- | --- | --- | --- | --- | --- | --- | --- | --- | --- | --- | --- |
| CC(C)C[C@@H]1NC(=O)[C@H](CCCNC(=N)N)NC(=O)[C@H](Cc2c[nH]cn2)NC(=O)[C@H](Cc2c[nH]c3ccccc23)NC(=O)CNC(=O)CNC(=O)[C@@H](N)CSSC[C@@H](C(=O)O)NC(=O)[C@H](CCCNC(=N)N)NC1=O [SEQ ID NO:1, C^(S)GGWHRLRC^(S)] (H-CGGWHRLRC-OH; disulfide 1-9; N-terminus and C-terminus assumed) | 75 | 25 | 50 | 26 | 50 | 17 | 50 | 24 | 28 | has anti-bacterial activity | – | – | – | – | – | – | – | – | – | – | MIC on M leuteus ([4]; Table 1, growth inhibition in liquid medium, 24 h at 30° C.): 33 µM (≈ 35.8 µg/mL) |
| N=C(N)NCCC[C@@H]1NC(=O)[C@H](CCCCN)NC(=O)[C@H](CCCNC(=N)N)NC(=O)[C@H](CCCCN)NC(=O)[C@H](Cc2c[nH]c3ccccc23)NC(=O)CNC(=O)CNC(=O)[C@@H](N)CSSC[C@@H](C(=O)O)NC1=O [SEQ ID NO:2, C^(S)GGWKRKRC^(S)] (H-CGGWKRKRC-OH; disulfide 1-9; N-terminus and C-terminus assumed) | – | – | – | – | – | – | – | – | – | increases the activity; also recorded: antibacterial potency greater than that of the cyclic peptide of sequence SEQ ID NO:1 | 33 | 15 | >75 | 24 | >75 | 20 | >75 | 14 | 13 (≈ 14.2 µg/mL) | 43 | – |
| CC(C)C[C@@H]1NC(=O)[C@H](CCCNC(=N)N)NC(=O)[C@H](Cc2c[nH]cn2)NC(=O)[C@H](Cc2c[nH]c3ccccc23)NC(=O)CNC(=O)CNC(=O)[C@@H](NC(=O)[C@H](Cc2ccc(O)cc2)NC(=O)CNC(=O)CNC(=O)[C@@H](N)CO)CSSC[C@@H](C(=O)N[C@H](C(=O)N[C@@H](CO)C(=O)N[C@@H](Cc2ccc(O)cc2)C(=O)N[C@@H](CCCNC(=N)N)C(=O)N[C@@H](CO)C(=O)NCC(=O)O)[C@@H](C)O)NC(=O)[C@H](CCCNC(=N)N)NC1=O [SEQ ID NO:6, SGGYC^(S)GGWHRLRC^(S)TSYRSG] (H-SGGYCGGWHRLRCTSYRSG-OH; disulfide 5-13; N-terminus and C-terminus assumed) | – | – | – | – | – | – | – | – | – | – | 75 | 19 | >75 | 25 | >75 | 24 | >75 | 29 | 32 (≈ 67.2 µg/mL) | 14 | – |
| CC(C)C[C@@H]1NC(=O)[C@H](CCCNC(=N)N)NC(=O)[C@H](Cc2c[nH]cn2)NC(=O)[C@H](Cc2c[nH]c3ccccc23)NC(=O)CNC(=O)CNC(=O)[C@@H]2CSSC[C@H](NC(=O)[C@H](CCCNC(=N)N)NC1=O)C(=O)N[C@@H]([C@@H](C)O)C(=O)N[C@@H](CO)C(=O)N[C@@H](Cc1ccc(O)cc1)C(=O)N[C@@H](CCCNC(=N)N)C(=O)N[C@H](C(=O)NCC(=O)O)CSSC[C@H](N)C(=O)NCC(=O)NCC(=O)N[C@@H](Cc1ccc(O)cc1)C(=O)N2 [SEQ ID NO:7, C^(S2)GGYC^(S1)GGWHRLRC^(S1)TSYRC^(S2)G] (H-CGGYCGGWHRLRCTSYRCG-OH; disulfide 1-18, 5-13; N-terminus and C-terminus assumed) | – | – | – | – | – | – | – | – | – | more active than the minimal structure | – | – | – | – | – | – | – | – | – | – | ability to lyse cells [7]: brings about the ability to lyse cells |
| GFGCPNNYQCHRHCKSIPGRCGGYCGGWHRLRCTCYRCG (listed as Mytilus galloprovincialis) [SEQ ID NO:3, Mytilus galloprovincialis defensin, small cationic protein of 4 kDa comprising 39 amino acids; native molecule, reference compound] | 1.2 | 0.6 | 1.5 | 0.8 | 6.2 | 3.1 | 1.5 | 0.6 | 5 | – | – | – | – | – | – | – | – | – | – | – | anti-bacterial and anti-fungal activity of MGD1 (in words) [8]: has anti-bacterial activity against Gram+ bacteria and anti-fungal activity; MBC on M leuteus ([4]; Table 1, plating on MHA, 24 h at 30° C.): 2 µM |
